In patent US20160158317A1, “Antimicrobial Peptide Variants and Polynucleotides Encoding Same” (Adenium Biotech A/S, priority 2010, published 2016):
Where a SMILES comes first, the peptide text is derived from it. Bridges are numbered along the chain shown (N, C = ends).

Experiment: Determination of the protein binding (90% serum, 30 kDa filter, HPLC)
Assay type: in vitro ADME
Conditions: serum
Description: Protein binding assays were performed as follows. The purified peptides were mixed with 90% serum and centrifuged through a 30 kDa filter. The ultra-filtrate and the non filtrated serum samples were quantified by HPLC measurements and the protein binding was subsequently calculated.
`CC(C)[C@@H]1NC(=O)CNC(=O)[C@H](CC(N)=O)NC(=O)[C@H](CCCNC(=N)N)NC(=O)[C@H](Cc2ccc(O)cc2)NC(=O)[C@H](C(C)C)NC(=O)[C@@H]2CSSC[C@H](NC(=O)[C@H](CO)NC(=O)[C@H](CCCNC(=N)N)NC1=O)C(=O)N[C@@H](Cc1ccc(O)cc1)C(=O)N[C@@H](CCCNC(=N)N)C(=O)N[C@@H](CCCNC(=N)N)C(=O)N[C@H](C(=O)N[C@@H](CC(N)=O)C(=O)O)CSSC[C@H](NC(=O)[C@H](Cc1ccccc1)NC(=O)CN)C(=O)N[C@@H](Cc1c[nH]c3ccccc13)C(=O)N[C@@H](CCCNC(=N)N)C(=O)N[C@@H](C)C(=O)N2` [compound 320] (H-GFCWRACVYRNGVRSCYRRCN-OH; disulfide 3-20, 7-16) gave a fraction unbound of 0.12. With `CC(C)[C@@H]1NC(=O)[C@H](CCCNC(=N)N)NC(=O)[C@H](Cc2c[nH]c3ccccc23)NC(=O)[C@@H](NC(=O)[C@H](Cc2ccccc2)NC(=O)CN)CSSC[C@@H](C(=O)N[C@@H](CC(N)=O)C(=O)O)NC(=O)[C@H](CCCNC(=N)N)NC(=O)[C@H](CCCNC(=N)N)NC(=O)[C@H](Cc2ccc(O)cc2)NC(=O)[C@@H]2CSSC[C@H](NC1=O)C(=O)N[C@@H](Cc1c[nH]cn1)C(=O)N[C@@H](Cc1ccc(O)cc1)C(=O)N[C@@H](CCCNC(=N)N)C(=O)N[C@@H](CC(N)=O)C(=O)N[C@@H](CO)C(=O)N[C@@H](C(C)C)C(=O)N[C@@H](CCCNC(=N)N)C(=O)N[C@@H](C(C)C)C(=O)N2` [compound 327] (H-GFCWRVCHYRNSVRVCYRRCN-OH; disulfide 3-20, 7-16 (inferred); N-terminus and C-terminus assumed) the fraction unbound was 0.02. With `CC(C)[C@@H]1NC(=O)CNC(=O)[C@H](CC(N)=O)NC(=O)[C@H](CCCNC(=N)N)NC(=O)[C@H](Cc2ccc(O)cc2)NC(=O)[C@H](CO)NC(=O)[C@@H]2CSSC[C@H](NC(=O)[C@H](CCCCN)NC(=O)[C@H](CCCNC(=N)N)NC1=O)C(=O)N[C@@H](Cc1ccc(O)cc1)C(=O)N[C@@H](CCCNC(=N)N)C(=O)N[C@@H](CCCNC(=N)N)C(=O)N[C@H](C(=O)N[C@@H](CC(N)=O)C(=O)O)CSSC[C@H](NC(=O)[C@H](Cc1ccccc1)NC(=O)CN)C(=O)N[C@@H](Cc1c[nH]c3ccccc13)C(=O)N[C@@H](CCCNC(=N)N)C(=O)N[C@@H](C(C)C)C(=O)N2` [compound 331] (H-GFCWRVCSYRNGVRKCYRRCN-OH; disulfide 3-20, 7-16 (inferred); N-terminus and C-terminus assumed) the fraction unbound was 0.05. Work on `CC(C)[C@@H]1NC(=O)CNC(=O)[C@H](CC(N)=O)NC(=O)[C@H](CCCNC(=N)N)NC(=O)[C@H](CCCNC(=N)N)NC(=O)[C@H](C(C)C)NC(=O)[C@@H]2CSSC[C@H](NC(=O)[C@H](C(C)C)NC(=O)[C@H](CCCNC(=N)N)NC1=O)C(=O)N[C@@H](Cc1c[nH]cn1)C(=O)N[C@@H](CCCNC(=N)N)C(=O)N[C@@H](CCCNC(=N)N)C(=O)N[C@H](C(=O)N[C@@H](CC(N)=O)C(=O)O)CSSC[C@H](NC(=O)[C@H](Cc1ccccc1)NC(=O)CN)C(=O)N[C@@H](Cc1c[nH]c3ccccc13)C(=O)N[C@@H](CCCNC(=N)N)C(=O)N[C@@H](C(C)C)C(=O)N2` [compound 335] (H-GFCWRVCVRRNGVRVCHRRCN-OH; disulfide 3-20, 7-16 (inferred); N-terminus and C-terminus assumed) yielded a fraction unbound of 0.05. Compound `CC(C)[C@@H]1NC(=O)[C@@H]2CSSC[C@H](NC(=O)[C@H](C)NC(=O)[C@H](CCCNC(=N)N)NC(=O)[C@H](CCCCN)NC(=O)CNC(=O)[C@H](CC(N)=O)NC(=O)[C@H](CCCNC(=N)N)NC(=O)[C@H](Cc3ccc(O)cc3)NC1=O)C(=O)N[C@@H](Cc1ccc(O)cc1)C(=O)N[C@@H](CCCNC(=N)N)C(=O)N[C@@H](CCCNC(=N)N)C(=O)N[C@H](C(=O)N[C@@H](CC(N)=O)C(=O)O)CSSC[C@H](NC(=O)[C@H](Cc1ccccc1)NC(=O)CN)C(=O)N[C@@H](Cc1c[nH]c3ccccc13)C(=O)N[C@@H](Cc1ccc(O)cc1)C(=O)N[C@@H](C)C(=O)N2` [compound 340] (H-GFCWYACVYRNGKRACYRRCN-OH; disulfide 3-20, 7-16 (inferred); N-terminus and C-terminus assumed) has a fraction unbound of 0.02. For `CC(C)[C@@H]1NC(=O)CNC(=O)[C@H](CC(N)=O)NC(=O)[C@H](CCCNC(=N)N)NC(=O)[C@H](Cc2ccc(O)cc2)NC(=O)[C@H](C)NC(=O)[C@@H]2CSSC[C@H](NC(=O)[C@H](C)NC(=O)[C@H](CCCNC(=N)N)NC1=O)C(=O)N[C@@H](Cc1ccc(O)cc1)C(=O)N[C@@H](CCCNC(=N)N)C(=O)N[C@@H](CCCNC(=N)N)C(=O)N[C@H](C(=O)N[C@@H](CC(N)=O)C(=O)O)CSSC[C@H](NC(=O)[C@H](Cc1ccccc1)NC(=O)CN)C(=O)N[C@@H](Cc1c[nH]c3ccccc13)C(=O)N[C@@H](Cc1ccc(O)cc1)C(=O)N[C@@H](C)C(=O)N2` [compound 343] (H-GFCWYACAYRNGVRACYRRCN-OH; disulfide 3-20, 7-16 (inferred); N-terminus and C-terminus assumed), the fraction unbound was 0.26. Compound `CC(C)C[C@@H]1NC(=O)CNC(=O)[C@H](CC(N)=O)NC(=O)[C@H](CCCNC(=N)N)NC(=O)[C@H](CCCCN)NC(=O)[C@H](C(C)C)NC(=O)[C@@H]2CSSC[C@H](NC(=O)[C@H](C(C)C)NC(=O)[C@H](CCCNC(=N)N)NC1=O)C(=O)N[C@@H](Cc1ccc(O)cc1)C(=O)N[C@@H](CCCNC(=N)N)C(=O)N[C@@H](CCCNC(=N)N)C(=O)N[C@H](C(=O)N[C@@H](CC(N)=O)C(=O)O)CSSC[C@H](NC(=O)[C@H](Cc1ccccc1)NC(=O)CN)C(=O)N[C@@H](Cc1c[nH]c3ccccc13)C(=O)N[C@@H](Cc1ccc(O)cc1)C(=O)N[C@@H]([C@@H](C)O)C(=O)N2` [compound 346] (H-GFCWYTCVKRNGLRVCYRRCN-OH; disulfide 3-20, 7-16 (inferred); N-terminus and C-terminus assumed) has a fraction unbound of 0.14. For `CC(C)[C@@H]1NC(=O)CNC(=O)[C@H](CC(N)=O)NC(=O)[C@H](CCCNC(=N)N)NC(=O)[C@H](Cc2ccc(O)cc2)NC(=O)[C@H](C(C)C)NC(=O)[C@@H]2CSSC[C@H](NC(=O)[C@H](C(C)C)NC(=O)[C@H](CCCNC(=N)N)NC1=O)C(=O)N[C@@H](Cc1c[nH]cn1)C(=O)N[C@@H](CCCNC(=N)N)C(=O)N[C@@H](Cc1c[nH]cn1)C(=O)N[C@H](C(=O)N[C@@H](CC(N)=O)C(=O)O)CSSC[C@H](NC(=O)[C@H](Cc1ccccc1)NC(=O)[C@@H](N)CCCNC(=N)N)C(=O)N[C@@H](Cc1c[nH]c3ccccc13)C(=O)N[C@@H](CC(N)=O)C(=O)N[C@@H](C(C)C)C(=O)N2` [compound 359] (H-RFCWNVCVYRNGVRVCHRHCN-OH; disulfide 3-20, 7-16 (inferred); N-terminus and C-terminus assumed), the fraction unbound was 0.2. Compound `CC(C)[C@@H]1NC(=O)[C@H](CCCNC(=N)N)NC(=O)[C@H](C)NC(=O)CNC(=O)[C@H](CC(N)=O)NC(=O)[C@H](CCCNC(=N)N)NC(=O)[C@H](CCCCN)NC(=O)[C@H](C(C)C)NC(=O)[C@@H]2CSSC[C@H](NC1=O)C(=O)N[C@@H](Cc1ccc(O)cc1)C(=O)N[C@@H](CCCNC(=N)N)C(=O)N[C@@H](CCCNC(=N)N)C(=O)N[C@H](C(=O)N[C@@H](CC(N)=O)C(=O)O)CSSC[C@H](NC(=O)[C@H](Cc1ccccc1)NC(=O)CN)C(=O)N[C@@H](C)C(=O)N[C@@H](Cc1c[nH]cn1)C(=O)N[C@@H](C(C)C)C(=O)N2` [compound 362] (H-GFCAHVCVKRNGARVCYRRCN-OH; disulfide 3-20, 7-16 (inferred); N-terminus and C-terminus assumed) has a fraction unbound of 0.24. `CC(C)[C@@H]1NC(=O)CNC(=O)[C@H](CC(N)=O)NC(=O)[C@H](CCCNC(=N)N)NC(=O)[C@H](CCCCN)NC(=O)[C@H](C)NC(=O)[C@@H]2CSSC[C@H](NC(=O)[C@H](C(C)C)NC(=O)[C@H](CCCNC(=N)N)NC1=O)C(=O)N[C@@H](Cc1ccc(O)cc1)C(=O)N[C@@H](CCCNC(=N)N)C(=O)N[C@@H](CCCNC(=N)N)C(=O)N[C@H](C(=O)N[C@@H](CC(N)=O)C(=O)O)CSSC[C@H](NC(=O)[C@H](Cc1ccccc1)NC(=O)CN)C(=O)N[C@@H](C)C(=O)N[C@@H](CCCNC(=N)N)C(=O)N[C@@H](C(C)C)C(=O)N2` [compound 363] (H-GFCARVCAKRNGVRVCYRRCN-OH; disulfide 3-20, 7-16 (inferred); N-terminus and C-terminus assumed) showed a fraction unbound of 0.2. Work on `CC(C)[C@@H]1NC(=O)CNC(=O)[C@H](CC(N)=O)NC(=O)[C@H](CCCNC(=N)N)NC(=O)[C@H](CCCNC(=N)N)NC(=O)[C@H](C(C)C)NC(=O)[C@@H]2CSSC[C@H](NC(=O)[C@H](C(C)C)NC(=O)[C@H](CCCNC(=N)N)NC1=O)C(=O)N[C@@H](Cc1ccc(O)cc1)C(=O)N[C@@H](CCCNC(=N)N)C(=O)N[C@@H](CCCNC(=N)N)C(=O)N[C@H](C(=O)N[C@@H](CC(N)=O)C(=O)O)CSSC[C@H](NC(=O)[C@H](Cc1ccccc1)NC(=O)CN)C(=O)N[C@@H](Cc1ccccc1)C(=O)N[C@@H](CCCNC(=N)N)C(=O)N[C@@H](CO)C(=O)N2` [compound 377] (H-GFCFRSCVRRNGVRVCYRRCN-OH; disulfide 3-20, 7-16 (inferred); N-terminus and C-terminus assumed) yielded a fraction unbound of 0.35. For `CC(C)[C@@H]1NC(=O)CNC(=O)[C@H](CC(N)=O)NC(=O)[C@H](CCCNC(=N)N)NC(=O)[C@H](CCCCN)NC(=O)[C@H](C(C)C)NC(=O)[C@@H]2CSSC[C@H](NC(=O)[C@H](CCCCN)NC(=O)[C@H](CCCNC(=N)N)NC1=O)C(=O)N[C@@H](Cc1ccc(O)cc1)C(=O)N[C@@H](CCCNC(=N)N)C(=O)N[C@@H](CCCNC(=N)N)C(=O)N[C@H](C(=O)N[C@@H](CC(N)=O)C(=O)O)CSSC[C@H](NC(=O)[C@H](Cc1ccccc1)NC(=O)CN)C(=O)N[C@@H](Cc1ccccc1)C(=O)N[C@@H](CCCNC(=N)N)C(=O)N[C@@H](C(C)C)C(=O)N2` [compound 381] (H-GFCFRVCVKRNGVRKCYRRCN-OH; disulfide 3-20, 7-16 (inferred); N-terminus and C-terminus assumed), the fraction unbound was 0.02.
